Read-outs that look alike come from different tables or passages of the source.
Target: HIV-1 protease (Human immunodeficiency virus type 1 group M subtype B, UniProt P04585)
Assay: biochemical
How it was run: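 Percent inhibition derived from fluorescent cleavage product separated by filtration after streptavidin-bead capture of intact biotin/FITC substrate. Reaction: enzyme (10 μl, 0.1 μM stock) with substrate (20 μl, 0.2 μM stock) and compound, 1 h at room temperature in dark, pH 5.5 acetate buffer with 1.0 M NaCl and 0.05% NP-40.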

[1] = dose 1.100 uM, read-out: HIV-1 Protease % Inhib
[2] = dose 3.300 uM, read-out: HIV-1 Protease % Inhib
[3] = dose 10.000 uM, read-out: HIV-1 Protease % Inhib
[4] = dose 30.000 uM, read-out: HIV-1 Protease % Inhib
[5] = read-out: HIV-1 Protease % Inhib, dose 1.100 uM
[6] = read-out: HIV-1 Protease % Inhib, dose 3.300 uM
[7] = read-out: HIV-1 Protease % Inhib, dose 10.000 uM
[8] = read-out: HIV-1 Protease % Inhib, dose 30.000 uM
[9] = read-out: HIV-1 Protease % Inhib, dose 0.370 uM

Structure (SMILES) | inhibition at 0.37 µM (dose 0.370 uM, read-out: HIV-1 Protease % Inhib) | inhibition at 1.1 µM [1] | inhibition at 3.3 µM [2] | inhibition at 10 µM [3] | inhibition at 30 µM [4] | inhibition at 1.1 µM [5] | inhibition at 3.3 µM [6] | inhibition at 10 µM [7] | inhibition at 30 µM [8] | inhibition at 0.37 µM [9] | inhibition at 0.123 µM (read-out: HIV-1 Protease % Inhib, dose 0.123 uM)
O=C(Nc1ccccc1)Nc1cccc(C(c2c(O)c3c(oc2=O)CCCCCC3)C2CC2)c1 (centres unmarked) [Example 224, N-[3-[Cyclopropyl(5,6,7,8,9,10-hexahydro-4-hydroxy-2-oxo-2H-cycloocta[b]pyran-3-yl)methyl]phenyl]-N'-phenyl-urea] | 10.9% | 42.4% | 72.3% | 83.7% | 95.3% | – | – | – | – | – | –
O=C(Nc1cccc(C(c2c(O)c3c(oc2=O)CCCCCC3)C2CC2)c1)Oc1ccccc1 (centres unmarked) [Example 225, [3-[Cyclopropyl(5,6,7,8,9,10-hexahydro-4-hydroxy-2-oxo-2H-cycloocta[b]pyran-3-yl)methyl]phenyl]-, phenyl ester carbamic acid] | – | – | – | – | – | 14.9% | 47% | 77.2% | 91.7% | – | –
CC(C)C(c1ccccc1)c1c(O)c2c(oc1=O)CCCCCC2 (centres unmarked) [Example 227, 2H-Cycloocta[b]pyran-2-one,5,6,7,8,9,10-hexahydro-4-hydroxy-3-(2-methyl-1-phenylpropyl)-] | – | – | – | – | – | 81.1% | 91.1% | 90.1% | 80.9% | 41.7% | –
O=c1oc2c(c(O)c1C(c1cccc(NCc3ccccc3)c1)C1CC1)CCCCCC2 (centres unmarked) [Example 242, 3-[Cyclopropyl-[3-[(phenylmethyl)amino]phenyl]methyl]-5,6,7,8,9,10-hexahydro-4-hydroxy-2H-cycloocta[b]pyran-2-one] | – | 13.8% | 36% | 65.3% | 78.9% | – | – | – | – | – | –
O=c1oc2c(c(O)c1C(c1cccc(NCCc3ccccc3)c1)C1CC1)CCCCCC2 (centres unmarked) [Example 243, 3-[Cyclopropyl-[3-[(2-phenylethyl)amino]phenyl]methyl]-5,6,7,8,9, 10-hexahydro-4-hydroxy-2H-cycloocta[b]pyran-2-one] | – | – | 24.4% | 44.7% | 54.3% | – | – | – | – | – | –
O=c1oc2c(c(O)c1C(c1cccc(N(Cc3ccccc3)S(=O)(=O)c3ccccc3)c1)C1CC1)CCCCCC2 (centres unmarked) [Example 244, N-[3-[Cyclopropyl(5,6,7,8,9, 10-hexahydro-4-hydroxy-2-oxo-2H-cycloocta[b]pyran-3-yl)methyl]phenyl]-N-(phenylmethyl)-benzenesulfonamide] | – | – | – | 18.8% | 31.8% | – | – | – | – | – | –
CS(=O)(=O)N(Cc1ccccc1)c1cccc(C(c2c(O)c3c(oc2=O)CCCCCC3)C2CC2)c1 (centres unmarked) [Example 245, N-[3-[Cyclopropyl(5,6,7,8,9, 10-hexahydro-4-hydroxy-2-oxo-2H-cycloocta[b]pyran-3-yl)methyl]phenyl]-N-(phenylmethyl)-methanesulfonamide] | – | 10.6% | 50.9% | 59.5% | 78.6% | – | – | – | – | – | –
O=c1oc2c(c(O)c1C(c1cccc(N(CCc3ccccc3)S(=O)(=O)c3ccccc3)c1)C1CC1)CCCCCC2 (centres unmarked) [Example 246, N-[3-[cyclopropyl(5,6,7,8,9,10-hexahydro-4-hydroxy-2-oxo-2H-cycloocta[b]pyran-3-yl)methyl]phenyl]-N-(2-phenylethyl)-benzenesulfonamide] | – | – | – | 26.6% | 49.7% | – | – | – | – | – | –
O=c1oc2c(c(O)c1C(c1cccc(NS(=O)(=O)c3cccc4cccnc34)c1)C1CC1)CCCCCC2 (centres unmarked) [Example 263, N-[3-[Cyclopropyl(5,6,7,8,9, 10-hexahydro4-hydroxy-2-oxo-2H-cycloocta[b]pyran-3-yl)methyl]phenyl]-8-quinolinesulfonamide] | – | – | – | – | – | 95.7% | 98.7% | 108% | 98.3% | 89.9% | 82.9%

Reference: patent US5686486A, “4-hydroxy-benzopyran-2-ones and 4-hydroxy-cycloalkyl[b]pyran-2-ones useful to treat retroviral infections” (priority 1995, dated 1997)
